Measured values: patent US9145392B2, “Imidazole amines as modulators of kinase activity” (Merck Patent GmbH, priority 2011, dated 2015)

Columns and labels:
P70S6K (T412E mutant) = P70S6K (T412E mutant) (Homo sapiens (Human), UniProt P23443, T412E); assay: P70S6K enzyme assay; format: biochemical; conditions: read-out: IC50 p70S6K
Method in brief: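 Read-out is the substrate/phosphopeptide ratio from mobility-shift electrophoresis on a LabChip 3000.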

His-AKT (Full Length) = His-AKT (Full Length) (Homo sapiens (Human), UniProt P31749); assay: AKT enzyme assay; format: biochemical; conditions: read-out: IC50 AKT
Chain of His-AKT (Full Length) (P31749 whole entry): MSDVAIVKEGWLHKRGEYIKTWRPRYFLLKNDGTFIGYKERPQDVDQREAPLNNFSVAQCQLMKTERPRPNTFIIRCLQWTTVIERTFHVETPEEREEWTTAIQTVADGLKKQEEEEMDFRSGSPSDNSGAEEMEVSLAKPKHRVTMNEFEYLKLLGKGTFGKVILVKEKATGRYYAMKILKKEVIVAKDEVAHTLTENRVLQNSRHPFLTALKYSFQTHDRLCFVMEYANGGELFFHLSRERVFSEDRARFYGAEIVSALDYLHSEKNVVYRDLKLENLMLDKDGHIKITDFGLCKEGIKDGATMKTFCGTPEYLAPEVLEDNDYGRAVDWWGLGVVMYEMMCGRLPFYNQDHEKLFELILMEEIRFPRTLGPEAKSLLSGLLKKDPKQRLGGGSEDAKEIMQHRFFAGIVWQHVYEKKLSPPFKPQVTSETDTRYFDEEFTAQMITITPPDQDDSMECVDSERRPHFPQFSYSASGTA

Chain of P70S6K (T412E mutant) (P23443 whole entry T412E): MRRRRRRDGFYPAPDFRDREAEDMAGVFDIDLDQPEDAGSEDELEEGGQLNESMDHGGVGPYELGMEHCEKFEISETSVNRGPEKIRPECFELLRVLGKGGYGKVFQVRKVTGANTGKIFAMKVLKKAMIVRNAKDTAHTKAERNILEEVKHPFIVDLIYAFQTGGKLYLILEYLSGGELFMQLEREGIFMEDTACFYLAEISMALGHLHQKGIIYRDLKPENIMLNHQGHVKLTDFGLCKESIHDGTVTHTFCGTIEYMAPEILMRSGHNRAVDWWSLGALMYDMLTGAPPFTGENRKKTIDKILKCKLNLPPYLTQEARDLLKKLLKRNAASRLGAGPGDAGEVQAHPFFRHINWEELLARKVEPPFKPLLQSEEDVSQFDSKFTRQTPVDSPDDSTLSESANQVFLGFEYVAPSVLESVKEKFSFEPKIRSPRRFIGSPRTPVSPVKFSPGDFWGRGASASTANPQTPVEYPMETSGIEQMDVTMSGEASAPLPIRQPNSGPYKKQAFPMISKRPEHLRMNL

N#Cc1c(N)ncnc1N1CCC(c2nc(-c3ccccc3)cn2CCN2CCC2)CC1 [Compound 131, 4-amino-6-(4-(1-(2-(azetidin-1-yl)ethyl)-4-phenyl-1H-imidazol-2-yl)piperidin-1-yl)pyrimidine-5-carbonitrile]
IC50 (P70S6K (T412E mutant)): 5.7 nM
IC50 (His-AKT (Full Length)): 165 nM

N#Cc1c(N)ncnc1N1CCC(c2nc(-c3cnoc3)cn2CCN2CCC2)CC1 [Compound 132, 4-amino-6-(4-(1-(2-(azetidin-1-yl)ethyl)-4-(isoxazol-4-yl)-1H-imidazol-2-yl)piperidin-1-yl)pyrimidine-5-carbonitrile]
IC50 (P70S6K (T412E mutant)): 23 nM
IC50 (His-AKT (Full Length)): 220 nM

NC(=O)c1c(N)ncnc1N1CCC(c2nc(-c3ccoc3)cn2CCN2CCC2)CC1 [Compound 133, 4-amino-6-(4-(1-(2-(azetidin-1-yl)ethyl)-4-(furan-3-yl)-1H-imidazol-2-yl)piperidin-1-yl)pyrimidine-5-carboxamide]
IC50 (P70S6K (T412E mutant)): 46 nM
IC50 (His-AKT (Full Length)): 3600 nM

NC(=O)c1c(N)ncnc1N1CCC(c2nc(-c3ccsc3)cn2CCN2CCC2)CC1 [Compound 134, 4-amino-6-(4-(1-(2-(azetidin-1-yl)ethyl)-4-(thiophen-3-yl)-1H-imidazol-2-yl)piperidin-1-yl)pyrimidine-5-carboxamide]
IC50 (P70S6K (T412E mutant)): 6 nM
IC50 (His-AKT (Full Length)): 1900 nM

NC(=O)c1c(N)ncnc1N1CCC(c2nc(-c3cnoc3)cn2CCN2CCC2)CC1 [Compound 135, 4-amino-6-(4-(1-(2-(azetidin-1-yl)ethyl)-4-(isoxazol-4-yl)-1H-imidazol-2-yl)piperidin-1-yl)pyrimidine-5-carboxamide]
IC50 (P70S6K (T412E mutant)): 860 nM
IC50 (His-AKT (Full Length)): 760 nM

NC(=O)c1c(N)ncnc1N1CCC(c2nc(-c3ccccc3)cn2CCN2CCC2)CC1 [Compound 136, 4-amino-6-(4-(1-(2-(azetidin-1-yl)ethyl)-4-phenyl-1H-imidazol-2-yl)piperidin-1-yl)pyrimidine-5-carboxamide]
IC50 (P70S6K (T412E mutant)): 8.4 nM
IC50 (His-AKT (Full Length)): 1900 nM

N#Cc1c(N)ncnc1N1CCC(c2nc(-c3ccc(F)c(C(F)(F)F)c3)cn2C2CCNC2)CC1 (centres unmarked) [Compound 137, 4-amino-6-(4-(4-(4-fluoro-3-(trifluoromethyl)phenyl)-1-(pyrrolidin-3-yl)-1H-imidazol-2-yl)piperidin-1-yl)pyrimidine-5-carbonitrile]
IC50 (P70S6K (T412E mutant)): 2.7 nM
IC50 (His-AKT (Full Length)): 11 nM

NC(=O)c1c(N)ncnc1N1CCC(c2nc(-c3ccc(F)c(C(F)(F)F)c3)cn2C2CCNC2)CC1 (centres unmarked) [Compound 138, 4-amino-6-(4-(4-(4-fluoro-3-(trifluoromethyl)phenyl)-1-(pyrrolidin-3-yl)-1H-imidazol-2-yl)piperidin-1-yl)pyrimidine-5-carboxamide]
IC50 (P70S6K (T412E mutant)): 1.7 nM
IC50 (His-AKT (Full Length)): 100 nM

CCc1c(N)ncnc1N1CCC(c2nc(-c3ccc(F)c(C(F)(F)F)c3)cn2CCN)CC1 [Compound 139, 6-(4-(1-(2-aminoethyl)-4-(4-fluoro-3-(trifluoromethyl)phenyl)-1H-imidazol-2-yl)piperidin-1-yl)-5-ethylpyrimidin-4-amine]
IC50 (P70S6K (T412E mutant)): 1.1 nM
IC50 (His-AKT (Full Length)): 6.6 nM

NC(=O)c1c(N)ncnc1N1CCC(c2nc(-c3ccc(F)c(C(F)(F)F)c3)cn2CC2CNC2)CC1 [Compound 140, 4-amino-6-(4-(1-(azetidin-3-ylmethyl)-4-(4-fluoro-3-(trifluoromethyl)phenyl)-1H-imidazol-2-yl)piperidin-1-yl)pyrimidine-5-carboxamide]
IC50 (P70S6K (T412E mutant)): 2.2 nM
IC50 (His-AKT (Full Length)): 27 nM

N#Cc1c(N)ncnc1N1CCC(c2nc(-c3ccc(F)c(C(F)(F)F)c3)cn2CC2CNC2)CC1 [Compound 141, 4-amino-6-(4-(1-(azetidin-3-ylmethyl)-4-(4-fluoro-3-(trifluoromethyl)phenyl)-1H-imidazol-2-yl)piperidin-1-yl)pyrimidine-5-carbonitrile]
IC50 (P70S6K (T412E mutant)): 13 nM
IC50 (His-AKT (Full Length)): 64.5 nM

N#Cc1c(N)ncnc1N1CCC(c2nc(-c3ccc(F)c(C(F)(F)F)c3)cn2C2CNC2)CC1 [Compound 142, 4-amino-6-(4-(1-(azetidin-3-yl)-4-(4-fluoro-3-(trifluoromethyl)phenyl)-1H-imidazol-2-yl)piperidin-1-yl)pyrimidine-5-carbonitrile]
IC50 (P70S6K (T412E mutant)): 6.4 nM
IC50 (His-AKT (Full Length)): 240 nM

NC(=O)c1c(N)ncnc1N1CCC(c2nc(-c3ccc(F)c(C(F)(F)F)c3)cn2C2CNC2)CC1 [Compound 143, 4-amino-6-(4-(1-(azetidin-3-yl)-4-(4-fluoro-3-(trifluoromethyl)phenyl)-1H-imidazol-2-yl)piperidin-1-yl)pyrimidine-5-carboxamide]
IC50 (P70S6K (T412E mutant)): 16 nM
IC50 (His-AKT (Full Length)): 670 nM

Nc1ncnc(N2CCC(c3nc(-c4ccnc(C(F)(F)F)c4)cn3CCN3CCC3)CC2)c1Cl [Compound 144, 6-(4-(1-(2-(azetidin-1-yl)ethyl)-4-(2-(trifluoromethyl)pyridin-4-yl)-1H-imidazol-2-yl)piperidin-1-yl)-5-chloropyrimidin-4-amine]
IC50 (P70S6K (T412E mutant)): 1.1 nM
IC50 (His-AKT (Full Length)): 2.5 nM

NC(=O)c1c(N)ncnc1N1CCC(c2nc(-c3cn[nH]c3)cn2CCN2CCC2)CC1 [Compound 145, 4-amino-6-(4-(1-(2-(azetidin-1-yl)ethyl)-4-(1H-pyrazol-4-yl)-1H-imidazol-2-yl)piperidin-1-yl)pyrimidine-5-carboxamide]
IC50 (P70S6K (T412E mutant)): 53 nM
IC50 (His-AKT (Full Length)): 2200 nM

N#Cc1c(N)ncnc1N1CCC(c2nc(-c3ccc(F)c(C(F)(F)F)c3)cn2C[C@@H]2CCN2)CC1 [Compound 146, (S)-4-amino-6-(4-(1-(azetidin-2-ylmethyl)-4-(4-fluoro-3-(trifluoromethyl)phenyl)-1H-imidazol-2-yl)piperidin-1-yl)pyrimidine-5-carbonitrile]
IC50 (P70S6K (T412E mutant)): 3.8 nM
IC50 (His-AKT (Full Length)): 31 nM

N#Cc1c(N)ncnc1N1CCC(c2nc(-c3ccc(F)c(C(F)(F)F)c3)cn2CC2CCCN2)CC1 (centres unmarked) [Compound 147, 4-amino-6-(4-(4-(4-fluoro-3-(trifluoromethyl)phenyl)-1-(pyrrolidin-2-ylmethyl)-1H-imidazol-2-yl)piperidin-1-yl)pyrimidine-5-carbonitrile]
IC50 (P70S6K (T412E mutant)): 1.8 nM
IC50 (His-AKT (Full Length)): 2.9 nM

Nc1ncnc(N2CCC(c3nc(-c4ccc(F)c(C(F)(F)F)c4)cn3CC3CNC3)CC2)c1Cl [Compound 148, 6-(4-(1-(azetidin-3-ylmethyl)-4-(4-fluoro-3-(trifluoromethyl)phenyl)-1H-imidazol-2-yl)piperidin-1-yl)-5-chloropyrimidin-4-amine]
IC50 (P70S6K (T412E mutant)): 4.8 nM
IC50 (His-AKT (Full Length)): 16.5 nM

Nc1ncnc(N2CCC(c3nc(-c4ccc(F)c(C(F)(F)F)c4)cn3C[C@@H]3CCN3)CC2)c1Cl [Compound 149, (S)-6-(4-(1-(azetidin-2-ylmethyl)-4-(4-fluoro-3-(trifluoromethyl)phenyl)-1H-imidazol-2-yl)piperidin-1-yl)-5-chloropyrimidin-4-amine]
IC50 (P70S6K (T412E mutant)): 4.8 nM
IC50 (His-AKT (Full Length)): 38 nM

NC(=O)c1c(N)ncnc1N1CCC(c2nc(-c3ccc(F)c(C(F)(F)F)c3)cn2C[C@@H]2CCN2)CC1 [Compound 150, (S)-4-amino-6-(4-(1-(azetidin-2-ylmethyl)-4-(4-fluoro-3-(trifluoromethyl)phenyl)-1H-imidazol-2-yl)piperidin-1-yl)pyrimidine-5-carboxamide]
IC50 (P70S6K (T412E mutant)): 10 nM
IC50 (His-AKT (Full Length)): 220 nM

CCc1c(N)ncnc1N1CCC(c2nc(-c3ccc(F)c(C(F)(F)F)c3)cn2CC2CNC2)CC1 [Compound 151, 6-(4-(1-(azetidin-3-ylmethyl)-4-(4-fluoro-3-(trifluoromethyl)phenyl)-1H-imidazol-2-yl)piperidin-1-yl)-5-ethylpyrimidin-4-amine]
IC50 (P70S6K (T412E mutant)): 2.2 nM
IC50 (His-AKT (Full Length)): 19 nM

CCc1c(N)ncnc1N1CCC(c2nc(-c3ccc(F)c(C(F)(F)F)c3)cn2C[C@@H]2CCN2)CC1 [Compound 152, (S)-6-(4-(1-(azetidin-2-ylmethyl)-4-(4-fluoro-3-(trifluoromethyl)phenyl)-1H-imidazol-2-yl)piperidin-1-yl)-5-ethylpyrimidin-4-amine]
IC50 (P70S6K (T412E mutant)): 5.2 nM
IC50 (His-AKT (Full Length)): 280 nM

NC(=O)c1c(N)ncnc1N1CCC(c2nc(-c3ccc(F)c(C(F)(F)F)c3)cn2CC2CCCN2)CC1 (centres unmarked) [Compound 153, 4-amino-6-(4-(4-(4-fluoro-3-(trifluoromethyl)phenyl)-1-(pyrrolidin-2-ylmethyl)-1H-imidazol-2-yl)piperidin-1-yl)pyrimidine-5-carboxamide]
IC50 (P70S6K (T412E mutant)): 10 nM
IC50 (His-AKT (Full Length)): 220 nM

NC(=O)c1c(N)ncnc1N1CCC(c2nc(-c3ccc(F)c(C(F)(F)F)c3)cn2C2CCNCC2)CC1 [Compound 154, 4-amino-6-(4-(4-(4-fluoro-3-(trifluoromethyl)phenyl)-1-(piperidin-4-yl)-1H-imidazol-2-yl)piperidin-1-yl)pyrimidine-5-carboxamide]
IC50 (P70S6K (T412E mutant)): 3 nM
IC50 (His-AKT (Full Length)): 480 nM

N#Cc1c(N)ncnc1N1CCC(c2nc(-c3ccc(F)c(C(F)(F)F)c3)cn2C2CCNCC2)CC1 [Compound 155, 4-amino-6-(4-(4-(4-fluoro-3-(trifluoromethyl)phenyl)-1-(piperidin-4-yl)-1H-imidazol-2-yl)piperidin-1-yl)pyrimidine-5-carbonitrile]
IC50 (P70S6K (T412E mutant)): 0.9 nM
IC50 (His-AKT (Full Length)): 160 nM

CN1CC(Cn2cc(-c3ccc(F)c(C(F)(F)F)c3)nc2C2CCN(c3ncnc(N)c3C(N)=O)CC2)C1 [Compound 156, 4-amino-6-(4-(4-(4-fluoro-3-(trifluoromethyl)phenyl)-1-((1-methylazetidin-3-yl)methyl)-1H-imidazol-2-yl)piperidin-1-yl)pyrimidine-5-carboxamide]
IC50 (P70S6K (T412E mutant)): 4.9 nM
IC50 (His-AKT (Full Length)): 81 nM

CCc1c(N)ncnc1N1CCC(c2nc(-c3ccc(F)c(C(F)(F)F)c3)cn2C2CCNCC2)CC1 [Compound 157, 5-ethyl-6-(4-(4-(4-fluoro-3-(trifluoromethyl)phenyl)-1-(piperidin-4-yl)-1H-imidazol-2-yl)piperidin-1-yl)pyrimidin-4-amine]
IC50 (P70S6K (T412E mutant)): 2 nM
IC50 (His-AKT (Full Length)): 190 nM

N#Cc1c(N)ncnc1N1CCC(c2nc(-c3ccc(F)c(C(F)(F)F)c3)cn2CCN)CC1 [Compound 158, 4-amino-6-(4-(1-(2-aminoethyl)-4-(4-fluoro-3-(trifluoromethyl)phenyl)-1H-imidazol-2-yl)piperidin-1-yl)pyrimidine-5-carbonitrile]
IC50 (P70S6K (T412E mutant)): 1.5 nM
IC50 (His-AKT (Full Length)): 3.6 nM
